Holding throughout (test): NCI tumour cell line growth inhibition, 48 h
Test [1] deals with SNB-78 CNS.
Test [2] relates to LXFL 529 NSCLC.
Test [3] has as its system DLD-1 colon.
Test [4] has as its system XF 498 CNS.
Test [5] concerns P388/ADR leukemia.
The test system of test [6] is SN12K1 renal.
Test [7] has as its system P388 leukemia.
Test [8] concerns RXF-631 renal.

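Cultured in 96-well plates, cells were exposed to test compound for 48 hours across five concentrations. GI50 is the concentration that inhibits growth by half. TGI denotes the concentration required for complete inhibition of growth.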

As for `CC(=O)c1cccc(NC2C(N)C(NC(=O)N(C)C)(C(C)O)C(C)(O)C2(O)COC(=O)c2c(C)cccc2O)c1` (stereo unspecified), the TGI in test [1] is 0.0541 µM; in test [2], 1.01 µM.

Turning to `O=C1c2cc(CCl)sc2C(=O)c2ccsc21`, the TGI in test [1] is 0.746 µM; in test [3], 2.16 µM; in test [2], 0.609 µM; in test [4] it was 3.1 µM.

Turning to `CCN(CC)CCNc1ccc(C)c2sc3ccc(O)cc3c(=O)c12`, the TGI in test [1] amounted to 7.88 µM; in test [3], 3.47 µM; in test [2], 2.54 µM; in test [4], 2.56 µM.

As for `COc1ccc2c(c1)c1cc(OC)ccc1n2CCCCOc1ccc(-c2c3ccccc3c(-c3ccc(OCCCCn4c5ccc(OC)cc5c5cc(OC)ccc54)cc3)c3ccccc23)cc1`, the TGI in test [3] and in test [4] was above 100 µM throughout.

Regarding `C/C(=N\Nc1ccc([N+](=O)[O-])cc1)C(=O)N(C)Nc1ccccc1`, the TGI in test [3], in test [2] and in test [4] was above 100 µM in each case.

On to `CC(=O)Oc1c(OC(C)=O)c(-c2ccc(O)c(O)c2)c(O)c(O)c1-c1ccc(O)cc1`, for which the TGI in test [5] was 50 µM; in test [1], above 100 µM; in test [3], above 100 µM; in test [4], above 100 µM; in test [6], above 100 µM. For the same compound, the values for the GI50 in test [1], in test [4] and in test [6] were above 100 µM, 46 µM and 48.6 µM, respectively.

For the compound `CCN(CC)CCCNC(=O)Cc1ccccc1Nc1c(Cl)cccc1Cl`, the TGI in test [1] is 32.8 µM; in test [3], 28.3 µM; in test [2], 21.3 µM; in test [4], 20.8 µM.

For `COc1cc(CC2c3cc(OC)c(OC)cc3CCN2C)c(Oc2cc3c(cc2OC)-c2c(OC)c(OC)c(OC)c4c2C(C3)N(C)CC4)cc1OC` (stereo unspecified), the TGI was 34.5 µM in test [1], 29.8 µM in test [3], 27.1 µM in test [2] and 26.6 µM in test [4].

Regarding `CCN1/C(=C/C(C)=C/c2sc3ccccc3[n+]2CC)Sc2ccccc21`, the TGI was determined as 2.51 µM in test [1], 1.2 µM in test [2] and 0.663 µM in test [4].

With `Nc1ccn(C2OC(COP(=O)(O)Oc3ccccc3)C(O)C2O)c(=O)n1` (stereo unspecified), the TGI in test [7] is 15.7 µM; in test [5], above 100 µM; in test [1], above 100 µM; in test [3], above 100 µM; in test [6], above 100 µM.

For the compound `CNC(=O)CN1CC(=O)N(C)C(=O)C1`, the TGI in test [1], in test [3], in test [2] and in test [4] was above 100 µM each time.

As for `C=C1C(=O)OC2/C=C(\C)C(O)/C=C\C(C)(O)CC(OC(=O)/C(C)=C/C)C12` (stereo unspecified), the TGI in test [8] was above 100 µM; in test [1], above 100 µM; in test [3], 28.3 µM; in test [2], 29.1 µM; in test [4] it was above 58.4 µM.

In the case of `CC(=O)Nc1ccc(-c2nnc(SCC(=O)Nc3ccc(C)cc3)o2)cc1`, the figures for the TGI in test [1], in test [3] and in test [2] were 34.7 µM, 30.2 µM and 30.5 µM, respectively.

The values above are taken from PubChem BioAssay (NCI).
